{"source": "patent US10206997B2", "about": "“Facilitator-DNA combination vaccine” (priority 2011, dated 2019)", "key": {"[1]": {"tested_on": "RAW264.7, JAWSII and DC2.4 cell lines", "assay": "Cy5-pEGFP plasmid entry and expression in antigen presenting cell lines", "assay_type": "cell-based", "experimental": "(§1) With respect to cell culture and inhibiter treatment, RAW264.7 and DC2.4 were cultured in DMEM/10% FCS, and JAWSII was cultured in DMEM/10% FCS with GMCSF (1000 U/ml, Peprotech, USA). Amiloride (Sigma-Aldrich, USA) was prepared as 10 mM solution and was diluted to 1 mM, 100 uM, 10 uM in DMEM medium before treatment. After culture medium was removed, cells were treated with amiloride, MβCD (5 mM, Sigma) or Fillipin (10 ng/ml, sigma) at 37° C. for 1 h. LPS (10 ng/ml, sigma) or 10 ng/ml DNA in DMEM was added at 37° C. for 0.5 h, after wash, culture medium was added and cells were cultured.\nWith respect to plasmid preparation and fluorescence conjugation, pEGFP (Clontech, USA) and pcD-S2 plasmid were prepared from DH5a culture, purified by EndoFree Plasmid Maxi Kit (Qiagen, Germany) and endotoxin was below 10 EU/mg by LAL test. Cy5 was conjugated to plasmid with Minis Label IT Kit (Minis, USA) as manual instructed."}, "[2]": {"tested_on": "Cy5-plasmid+ cells in lymph nodes", "assay": "Cy5-pEGFP plasmid entry in vivo, Cy5+ cells in draining lymph nodes by FACS", "set-up": "species or system C57B/6 mice", "settings": "hind footpad, 4 hrs", "experimental": "(§2) 4 h later, both inguinal lymph nodes were collected."}, "RAW264.7": {"tested_on": "RAW264.7", "assay": "APC maturation markers and innate cytokine secretion with pcD-S2", "assay_type": "cell-based", "settings": "pcD-S2 with vs without amiloride", "experimental": "as §1"}, "HBsAg": {"tested_on": "HBsAg", "assay": "Antibody against HBsAg after footpad immunization", "assay_type": "in vivo, C57B/6 mice"}, "CD8+ T effectors": {"tested_on": "CD8+ T effectors", "assay": "Multi-color flow cytometry of CD8+ T effectors (IFN-γ, perforin, granzyme B)", "assay_type": "in vivo, mice", "settings": "HBsAg restimulation", "experimental": "as §2\nWith respect to multi-color flow cytometry, a multi-color panel was set up with anti-CD3, anti-CD8, anti-IFN-γ, anti-perforin and anti-granzyme B. After restimulation in vitro by sAg for 24 h or S208-215 for 12 h, following monensin block for 6 h, splenocyte was fixed, penetrated and stained. Data was collected with BD Aria and analyzed with Flowjo (Tree Star, Ashland, USA)."}, "[3]": {"tested_on": "CD8 T cells co-cultured with peritoneal macrophages or spleen dendritic cells", "assay": "Co-culture of treated APCs with purified CD8 T cells", "assay_type": "cell-based, mice", "settings": "macrophages and DCs co-culture; pcD-S2 with vs without amiloride", "experimental": "With respect to co-cultures, pcD-S2 (10 μg/ml) with or without 100 μM amiloride treat APCs, peritoneal macrophage or spleen dendritic cell, were cultured for 2 days. At day 3, purified CD8 T cell (R&D systems, USA) was added into culture with APC:T ratio of 1:5, 1:2, 1:1. At day 8, cells were collected and restimulated with S208-215 (10 μg/ml). PMA+Ionomycin was added as positive control for restimulation."}}, "data": [{"smiles": "N=C(N)NC(=O)c1nc(Cl)c(N)nc1N", "note": "[amiloride]", "values": [{"measurement": "GFP expression", "setting": "[1]; 1 mM amiloride pre-treatment, after 3 days culture, vs un-treated cells", "result": "significantly higher level of GFP"}, {"measurement": "GFP expression relative to liposome treated cells", "setting": "[1]; 1 mM amiloride, 3 days", "result": "comparable with that of liposome treated cells"}, {"measurement": "uptake of Cy5-labeled pEGFP plasmids", "setting": "[1]; pre-treated with 1 mM amiloride for 1 h, within 2 hrs, vs un-treated cells", "result": "significantly taken up"}, {"measurement": "percentage of Cy5-plasmid+ cells in lymph nodes (LN)", "setting": "[2]; 10 μM amiloride", "result": "increased"}, {"measurement": "percentage of Cy5-plasmid+ cells in lymph nodes (LN)", "setting": "[2]; 100 μM amiloride", "result": "peaked"}, {"measurement": "percentage of Cy5-plasmid+ cells in lymph nodes (LN)", "setting": "[2]; 1 mM amiloride", "result": "decreased"}, {"measurement": "expression of TNF and IFN-γ", "setting": "RAW264.7; RAW264.7", "result": "higher levels of expression of TNF and IFN-γ"}, {"measurement": "expression of maturation markers CD40, CD80 and CD86", "setting": "RAW264.7; RAW264.7 in vitro", "result": "higher levels of expression of CD40, CD80 and CD86"}, {"measurement": "most effective dose of amiloride for in vivo treatment", "setting": "HBsAg; antibody and DTH experiments", "result": 1, "unit": "mM"}, {"measurement": "levels of antibody against HBsAg", "setting": "HBsAg; footpad immunization, vs pcD-S2 alone, dose dependent", "result": "increased"}, {"measurement": "triple positive cells in HBsAg stimulated CD8 response", "setting": "CD8+ T effectors", "result": "triple positive cells could also be observed"}, {"measurement": "percentage of S208-215 specific triple positive CD8 T effectors", "setting": "[3]", "result": "significantly increased"}]}]}
